Assay results taken from US20100298141A1, “SUBSTITUTED PYRIDINE N-OXIDE HERBICIDES” (E. I. DU PONT DE NEMOURS AND COMPANY, priority 2007, published 2010).

Key:
blackgrass = experiment: Test C pre-/postemergence test; assay type: in vivo, Alopecurus myosuroides
How it was run: (§1)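 Compounds in a non-phytotoxic solvent with surfactant applied preemergence to seeded pots and, at the same time, postemergence to plants 2–18 cm tall (1- to 4-leaf stage). Paddy tests: pots flooded to 3 cm, compound applied into the water, depth held throughout.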

Russian thistle = experiment: Test C pre-/postemergence test; assay type: in vivo, Salsola kali
How it was run: as §1

corn = experiment: Test C pre-/postemergence test; assay type: in vivo, Zea mays
How it was run: as §1

woolly cupgrass = experiment: Test C pre-/postemergence test; assay type: in vivo, Eriochloa villosa
How it was run: as §1

bermudagrass = experiment: Test F preemergence test; assay type: in vivo, Cynodon dactylon; settings: scale 0 to 100
How it was run: (§2)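 Compounds in a non-phytotoxic solvent formulation with surfactant were applied before emergence after sowing, or, for sugarcane, also postemergence. Evaluation was visual, against controls, after 14 to 21 greenhouse days.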

Surinam grass = experiment: Test F preemergence test; assay type: in vivo, Brachiaria decumbens; settings: scale 0 to 100
How it was run: as §2

large crabgrass = experiment: Test F preemergence test; assay type: in vivo, Digitaria sanguinalis; settings: scale 0 to 100
How it was run: as §2

goosegrass = experiment: Test F preemergence test; assay type: in vivo, Eleusine indica; settings: scale 0 to 100
How it was run: as §2

kochia = experiment: Test F preemergence test; assay type: in vivo, Kochia scoparia; settings: scale 0 to 100
How it was run: as §2

purple nutsedge = experiment: Test F preemergence test; assay type: in vivo, Cyperus rotundus; settings: scale 0 to 100
How it was run: as §2

common ragweed = experiment: Test F preemergence test; assay type: in vivo, Ambrosia elation; settings: scale 0 to 100
How it was run: as §2

mustard = experiment: Test F preemergence test; assay type: in vivo, Brassica nigra; settings: scale 0 to 100
How it was run: as §2

barnyardgrass = experiment: Test F preemergence test; assay type: in vivo, Echinochloa crus-galli
How it was run: as §2

southern sandbur = experiment: Test F preemergence test; assay type: in vivo, Cenchrus echinatus; settings: scale 0 to 100
How it was run: as §2

Italian ryegrass = experiment: Test F preemergence test; assay type: in vivo, Lolium multiflorum; settings: scale 0 to 100
How it was run: as §2

broadleaf signalgrass = experiment: Test F preemergence test; assay type: in vivo, Brachiaria platyphylla; settings: scale 0 to 100
How it was run: as §2

quackgrass = experiment: Test F preemergence test; assay type: in vivo, Elytrigia repens; settings: scale 0 to 100
How it was run: as §2

[1] = Preemergence, 31 g ai/ha, scale 0 to 100 (0 no effect, 100 complete control)
[2] = preemergence, 250 g ai/ha, scale 0 (no effect) to 100 (complete control)
[3] = 62 g ai/ha, Preemergence, scale 0 to 100
[4] = 125 g ai/ha, preemergence, scale 0 (no effect) to 100 (complete control)

Cc1cc[n+]([O-])c(S(=O)(=O)C(Cl)c2c(C(F)(F)F)nn(C)c2OCC(F)(F)F)c1 (racemic) [Compound 37]
0: Plant response rating, Corn (corn; [1]) | Plant response rating, Surinam Grass (Surinam grass; 16 g ai/ha, preemergence) | Plant response rating, Crabgrass, Large (large crabgrass; 16 g ai/ha, preemergence) | Plant response rating, Kochia (kochia; 16 g ai/ha, preemergence) | Kochia plant response rating (kochia; 62 g ai/ha, Preemergence) | Kochia plant response rating (kochia; 125 g ai/ha, preemergence) | Plant response rating, Kochia (kochia; Preemergence, 31 g ai/ha) | Plant response rating, Purple Nutsedge (purple nutsedge; 16 g ai/ha, preemergence) | Purple Nutsedge plant response rating (purple nutsedge; 62 g ai/ha, Preemergence) | Purple Nutsedge plant response rating (purple nutsedge; 125 g ai/ha, preemergence) | Plant response rating, Purple Nutsedge (purple nutsedge; Preemergence, 31 g ai/ha) | Plant response rating, Ragweed (common ragweed; 16 g ai/ha, preemergence) | Ragweed plant response rating (common ragweed; 125 g ai/ha, preemergence) | Plant response rating, Ragweed (common ragweed; Preemergence, 62 g ai/ha) | Plant response rating, Ragweed (common ragweed; Preemergence, 31 g ai/ha) | Plant response rating, Black Mustard (mustard; 16 g ai/ha, preemergence) | Plant response rating, Quackgrass (quackgrass; 16 g ai/ha, preemergence)
50: Corn plant response rating (corn; [4]) | Crabgrass, Large plant response rating (large crabgrass; 62 g ai/ha, Preemergence) | Crabgrass, Large plant response rating (large crabgrass; 125 g ai/ha, preemergence) | Black Mustard plant response rating (mustard; 62 g ai/ha, Preemergence)
5: Corn plant response rating (corn; [3])
80: Cupgrass, Woolly plant response rating (woolly cupgrass; [3])
40: Plant response rating, Cupgrass, Woolly (woolly cupgrass; [1]) | Plant response rating, Barnyardgrass (barnyardgrass; Preemergence, 31 g ai/ha, scale 0 to 100)
35: Plant response rating, Bermudagrass (bermudagrass; 16 g ai/ha, preemergence) | Plant response rating, Bermudagrass (bermudagrass; Preemergence, 31 g ai/ha) | Plant response rating, Crabgrass, Large (large crabgrass; Preemergence, 31 g ai/ha) | Plant response rating, Sandbur (southern sandbur; 16 g ai/ha, preemergence) | Plant response rating, Signalgrass (broadleaf signalgrass; Preemergence, 31 g ai/ha)
95: Plant response rating, Blackgrass (blackgrass; [1]) | Signalgrass plant response rating (broadleaf signalgrass; 125 g ai/ha, preemergence)
90: Corn plant response rating (corn; [2]) | Surinam Grass plant response rating (Surinam grass; 125 g ai/ha, preemergence) | Sandbur plant response rating (southern sandbur; 125 g ai/ha, preemergence) | Plant response rating, Sandbur (southern sandbur; Preemergence, 62 g ai/ha) | Plant response rating, Ryegrass, Italian (Italian ryegrass; Preemergence, 62 g ai/ha)
98: Cupgrass, Woolly plant response rating (woolly cupgrass; [4]) | Goosegrass plant response rating (goosegrass; 125 g ai/ha, preemergence)
60: Plant response rating, Surinam Grass (Surinam grass; Preemergence, 62 g ai/ha) | Plant response rating, Surinam Grass (Surinam grass; Preemergence, 31 g ai/ha)
25: Quackgrass plant response rating (quackgrass; 62 g ai/ha, Preemergence) | Plant response rating, Quackgrass (quackgrass; Preemergence, 31 g ai/ha)
70: Plant response rating, Sandbur (southern sandbur; Preemergence, 31 g ai/ha) | Quackgrass plant response rating (quackgrass; 125 g ai/ha, preemergence)
20: Plant response rating, Barnyardgrass (barnyardgrass; 16 g ai/ha, preemergence, scale 0 to 100 (0 no effect, 100 complete control)) | Plant response rating, Ryegrass, Italian (Italian ryegrass; 16 g ai/ha, preemergence) | Plant response rating, Signalgrass (broadleaf signalgrass; 16 g ai/ha, preemergence)
15: Plant response rating, Black Mustard (mustard; Preemergence, 31 g ai/ha)
75: Bermudagrass plant response rating (bermudagrass; 125 g ai/ha, preemergence) | Goosegrass plant response rating (goosegrass; 62 g ai/ha, Preemergence) | Plant response rating, Ryegrass, Italian (Italian ryegrass; Preemergence, 31 g ai/ha)
100: Blackgrass plant response rating (blackgrass; [2]) | Plant response rating, Russian Thistle (Russian thistle; [1]) | Russian Thistle plant response rating (Russian thistle; [2]) | Cupgrass, Woolly plant response rating (woolly cupgrass; [2]) | Black Mustard plant response rating (mustard; 125 g ai/ha, preemergence) | Barnyardgrass plant response rating (barnyardgrass; [3]) | Barnyardgrass plant response rating (barnyardgrass; 125 g ai/ha, preemergence, scale 0 to 100) | Ryegrass, Italian plant response rating (Italian ryegrass; 125 g ai/ha, preemergence)
65: Bermudagrass plant response rating (bermudagrass; 62 g ai/ha, Preemergence) | Plant response rating, Goosegrass (goosegrass; 16 g ai/ha, preemergence) | Plant response rating, Goosegrass (goosegrass; Preemergence, 31 g ai/ha) | Plant response rating, Signalgrass (broadleaf signalgrass; Preemergence, 62 g ai/ha)
